This test concerns Tygress tomato plants. Description: Foliar nutrient concentration at 7 WAT, greenhouse tomato spring 2009 (Examples 13-15). The test is classed as in vivo. Particulars: tomato leaves 1 week after treatment. On the procedure: The following experiments were performed in a green house during the spring of 2009 at GCREC, Balm, University of Florida. Crop set-up, procedures and variables were as follows.
Transplants of ‘Tygress’ tomato plants were planted in 2-gallon pots filled with commercial planting medium with nutrient concentration of Fe, Zn, Mn, Cu being negligible and insufficient for crop growth. Irrigation and non-micronutrient fertilizer were provided daily through microsprinklers at recommended rates for tomato production in Florida. No pesticides were used. Treatments were as described in Tables 42, 43, and 44 below. BIOX-Cu was compared to Cu-sulfate, BIOX-EDC, and BIOX-O; and BIOX-Fe was compared to Fe-sulfate and BIOX-EDF. BIOX-MEZ is Ca-HMTBA.
Treatments were applied at 6 WAT (weeks after transplanting) using a water volume of 200 mL/plant. Deionized water was used for foliar applications. A non-ionic surfactant was added. Other nutrients were applied as appropriate under non-limiting conditions.
Foliar tissue nutrient analysis was performed at 3 WAT (i.e., 3 weeks before treatment) and 7 WAT (i.e., 1 weeks after treatment) on the non-applied newest leaves. The concentrations of N, P, K, Mg, Ca, B, Zn, Mn, Fe, and Cu in the foliar tissue were determined by a commercial laboratory. There were no significant differences between the foliar nutrient concentrations of any of the treatment groups prior to treatment.
Experimental design was a randomized complete block design with 6 replications. Data were analyzed using a general linear model, and means were separated using an LSD test at the 5% significance level.

As to `CSCCC(O)C(=O)[O-].CSCCC(O)C(=O)[O-].[Cu+2]` (stereo not drawn) [BIOX-Cu, Cu-HMTBA], the “Foliar Cu concentration” value is given as 72 ppm (Cu 0.14 lb/acre), 91 ppm (Cu 0.28 lb/acre), 208 ppm (Cu 0.46 lb/acre) and 397 ppm (Cu 0.55 lb/acre).

Take Fe-HMTBA [BIOX-Fe]: the “Foliar Fe concentration” value is, setting by setting: (Fe 0.28 lb/acre) 249 ppm; (Fe 0.57 lb/acre) 388 ppm; (Fe 1.12 lb/acre) 517 ppm; (Fe 1.74 lb/acre) 453 ppm; (Fe 2.3 lb/acre) 383 ppm.
